Assay [1] deals with A498. Nature of the assay: Cytotoxicity against human A498 cells assessed as reduction in cell viability. The class given is functional, cell-based.
Assay [2] concerns A498. Nature of the assay: Antiproliferative activity against human A498 cells after 48 hrs by sulphorhodamine B assay. The class given is functional, cell-based. The following applies: A498, 48 h. (In general: The SRB assay estimates cell density from bound dye.)

Molecules are shown by their SMILES.

What is called IC50 is the concentration needed to halve the response being measured. In the case of `CC[C@@]12C[C@@H](OC(=O)CO)[C@@](C)(O1)[C@@H]1CC[C@@H](C)[C@H]1[C@@H]2OC(=O)/C=C/c1ccccc1`, in the assay on A498 [1], the 50% inhibitory concentration (IC50) was 950 nM. `CC1(C)C2C[C@H](OC(=O)/C=C/c3ccccc3)C1(C)C[C@H]2OC(=O)CO` (stereo not given in full): the 50% inhibitory concentration (IC50) in the assay on A498 [1] amounted to 35000 nM.

In the assay on A498 [2], `CC(C)[C@@]12C[C@@H](C(=O)OCCO)[C@@](C)(O1)[C@@H]1CC[C@@H](C)[C@H]1[C@@H]2OC(=O)/C=C/c1ccccc1` yielded an IC50 of 48 nM. Consider `C[C@@H]1CC[C@@H]2[C@@H]1[C@H](OC(=O)/C=C/c1ccccc1)[C@]1(C)C[C@@H](OC(=O)CO)[C@@]2(C)O1`, for which the IC50 in the assay on A498 [1] was 4600 nM. Consider `CC(C)[C@@]12C[C@@H](OC(=O)CO)[C@@](C)(O1)[C@@H]1CC[C@@H](C)[C@H]1[C@@H]2OC(=O)c1ccc(Cl)cc1Cl`, for which the IC50 in the assay with A498 [1] turned out to be 280 nM.

The values above are taken from ChEMBL document CHEMBL4052604, “Englerins: A Comprehensive Review” (J Nat Prod, 2017).
